Experimental data as given in patent US20200405794A1, “PHARMACEUTICAL COMPOSITION FOR PREVENTING OR TREATING CANCER […] AND H[…] EFFECTIVE COMPONENTS” (priority 2018, published 2020).

Legend:
[1] = system: 4T1 cancer cell line-implanted mice; experiment: 4T1 I: tumor size in mouse breast cancer cell-implanted mice; assay type: in vivo, Balb/c mice; conditions: 10 days; OTS-412 1×10^7 pfu intratumorally once; hydroxyurea 30 mg/kg intraperitoneally once a day; n=4
[2] = system: HCT-116 cancer cell line-implanted mice; experiment: Tumor size in human colorectal cancer cell (HCT-116)-implanted mice; assay type: in vivo, Balb/c nu/nu mice; conditions: day 28; hydroxyurea only, once daily; n=5
[3] = system: NCI-H460 lung cancer cells-implanted mice; experiment: Tumor size in human lung cancer cell (NCI-H460)-implanted mice; assay type: in vivo, Balb/c nu/nu mice; conditions: day 15; OTS-412 1×10^5 pfu twice (5 days apart); hydroxyurea 20 mg/kg once daily
[4] = day 21; OTS-412 1×10^7 pfu twice or hydroxyurea 30 mg/kg, each alone; n=10
[5] = system: 4T1 cancer cell line-implanted mice; experiment: 4T1 III: tumor size and survival with high-dose hydroxyurea; assay type: in vivo, Balb/c mice; conditions: 17 days; OTS-412 1×10^7 pfu intratumorally once; high-dose hydroxyurea 90 mg/kg intraperitoneally once a day

## hydroxyurea
[1]
  tumor size increase: ~5 times
[2]
  tumor size increase: 11 times
[3]
  tumor size increase: 9 times
[4]
  body weight loss: around 10%
[5]
  tumor size increase: ~3.5 times
